Earlier results in PMC9851200, “Multiparameter phenotypic screening for endogenous TFEB and TFE3 translocation identifies novel chemical series modulating lysosome function” (Autophagy, 2022).

Experiments:
Design in all cases: method as in original PKIS2 published data
[1] = target: T1, kinases (KINOMEscan panel) (Homo sapiens, UniProt Q8IW41); conditions: MAPKAPK5; Published KINOMEscan; ref original PKIS2 published data; cited from earlier work
T1 sequence (Q8IW41 1-473): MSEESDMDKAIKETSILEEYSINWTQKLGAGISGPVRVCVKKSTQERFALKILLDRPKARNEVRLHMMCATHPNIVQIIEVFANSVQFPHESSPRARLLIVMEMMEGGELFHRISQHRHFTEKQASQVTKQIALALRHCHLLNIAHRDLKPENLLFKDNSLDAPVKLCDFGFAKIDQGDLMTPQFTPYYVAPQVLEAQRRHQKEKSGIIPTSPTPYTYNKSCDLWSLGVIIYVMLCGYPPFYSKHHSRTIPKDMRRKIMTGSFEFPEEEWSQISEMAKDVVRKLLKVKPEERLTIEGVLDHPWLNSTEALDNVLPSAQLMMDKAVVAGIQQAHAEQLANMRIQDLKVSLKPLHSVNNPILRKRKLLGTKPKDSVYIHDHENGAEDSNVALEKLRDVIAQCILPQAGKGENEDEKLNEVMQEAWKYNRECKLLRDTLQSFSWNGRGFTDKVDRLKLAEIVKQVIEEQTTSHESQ

[2] = target: T2, kinases (KINOMEscan panel) (Homo sapiens, UniProt Q8IVH8); conditions: Published KINOMEscan; ref original PKIS2 published data; cited from earlier work
T2 sequence (Q8IVH8 1-894): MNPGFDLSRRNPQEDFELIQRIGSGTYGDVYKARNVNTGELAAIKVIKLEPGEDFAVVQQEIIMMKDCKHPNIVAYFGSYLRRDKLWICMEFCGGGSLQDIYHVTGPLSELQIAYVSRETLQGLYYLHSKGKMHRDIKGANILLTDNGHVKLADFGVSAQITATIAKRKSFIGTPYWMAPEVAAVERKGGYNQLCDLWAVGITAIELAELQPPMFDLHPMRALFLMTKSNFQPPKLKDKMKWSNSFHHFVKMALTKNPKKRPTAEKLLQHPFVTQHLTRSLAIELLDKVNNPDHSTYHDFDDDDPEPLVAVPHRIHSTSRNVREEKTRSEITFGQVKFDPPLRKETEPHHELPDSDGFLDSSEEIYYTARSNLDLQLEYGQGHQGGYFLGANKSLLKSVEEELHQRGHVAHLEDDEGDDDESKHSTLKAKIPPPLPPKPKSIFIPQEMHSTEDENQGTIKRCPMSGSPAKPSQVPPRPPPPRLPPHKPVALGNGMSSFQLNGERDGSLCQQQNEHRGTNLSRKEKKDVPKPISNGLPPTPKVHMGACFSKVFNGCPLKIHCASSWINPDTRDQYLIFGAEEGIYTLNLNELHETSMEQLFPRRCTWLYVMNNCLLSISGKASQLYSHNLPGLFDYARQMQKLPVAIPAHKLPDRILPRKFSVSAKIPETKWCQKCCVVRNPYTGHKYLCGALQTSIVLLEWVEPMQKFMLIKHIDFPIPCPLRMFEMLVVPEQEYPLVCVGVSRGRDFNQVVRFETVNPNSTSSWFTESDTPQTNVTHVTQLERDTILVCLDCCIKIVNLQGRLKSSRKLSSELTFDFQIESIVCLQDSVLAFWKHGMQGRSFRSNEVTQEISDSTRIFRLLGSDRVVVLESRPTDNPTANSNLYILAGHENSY

[3] = target: T3, kinases (KINOMEscan panel) (Homo sapiens, UniProt Q99640); conditions: kinase PKMYT1; Published KINOMEscan; ref original PKIS2 published data; cited from earlier work
T3 sequence (Q99640 1-499): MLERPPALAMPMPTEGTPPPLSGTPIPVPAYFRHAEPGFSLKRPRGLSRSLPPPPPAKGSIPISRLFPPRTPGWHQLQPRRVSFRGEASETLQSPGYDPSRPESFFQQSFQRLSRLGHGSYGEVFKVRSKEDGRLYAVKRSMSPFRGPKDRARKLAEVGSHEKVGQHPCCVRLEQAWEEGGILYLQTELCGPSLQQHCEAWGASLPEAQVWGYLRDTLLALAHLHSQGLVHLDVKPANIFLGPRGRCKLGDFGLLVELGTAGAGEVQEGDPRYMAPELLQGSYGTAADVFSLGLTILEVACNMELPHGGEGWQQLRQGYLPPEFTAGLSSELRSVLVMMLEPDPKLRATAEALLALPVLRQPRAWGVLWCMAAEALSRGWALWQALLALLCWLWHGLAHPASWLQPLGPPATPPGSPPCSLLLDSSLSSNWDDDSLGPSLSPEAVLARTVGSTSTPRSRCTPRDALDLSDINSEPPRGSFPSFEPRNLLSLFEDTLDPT

[4] = target: kinases (KINOMEscan panel) (Homo sapiens, UniProt Q96J92); conditions: WNK4; Published KINOMEscan; ref original PKIS2 published data; cited from earlier work
[5] = target: kinases (KINOMEscan panel) (Homo sapiens, UniProt Q9H4B4); conditions: kinase PLK3; Published KINOMEscan; ref original PKIS2 published data; cited from earlier work
[6] = target: kinases (KINOMEscan panel) (Homo sapiens, UniProt Q15746); conditions: kinase MYLK; Published KINOMEscan; ref original PKIS2 published data; cited from earlier work
[7] = target: kinases (KINOMEscan panel) (Homo sapiens, UniProt Q9Y463); conditions: kinase DYRK1B; Published KINOMEscan; ref original PKIS2 published data; cited from earlier work
kinases (KINOMEscan panel) (Homo sapiens, UniProt Q9Y463), sequence (Q9Y463 whole entry): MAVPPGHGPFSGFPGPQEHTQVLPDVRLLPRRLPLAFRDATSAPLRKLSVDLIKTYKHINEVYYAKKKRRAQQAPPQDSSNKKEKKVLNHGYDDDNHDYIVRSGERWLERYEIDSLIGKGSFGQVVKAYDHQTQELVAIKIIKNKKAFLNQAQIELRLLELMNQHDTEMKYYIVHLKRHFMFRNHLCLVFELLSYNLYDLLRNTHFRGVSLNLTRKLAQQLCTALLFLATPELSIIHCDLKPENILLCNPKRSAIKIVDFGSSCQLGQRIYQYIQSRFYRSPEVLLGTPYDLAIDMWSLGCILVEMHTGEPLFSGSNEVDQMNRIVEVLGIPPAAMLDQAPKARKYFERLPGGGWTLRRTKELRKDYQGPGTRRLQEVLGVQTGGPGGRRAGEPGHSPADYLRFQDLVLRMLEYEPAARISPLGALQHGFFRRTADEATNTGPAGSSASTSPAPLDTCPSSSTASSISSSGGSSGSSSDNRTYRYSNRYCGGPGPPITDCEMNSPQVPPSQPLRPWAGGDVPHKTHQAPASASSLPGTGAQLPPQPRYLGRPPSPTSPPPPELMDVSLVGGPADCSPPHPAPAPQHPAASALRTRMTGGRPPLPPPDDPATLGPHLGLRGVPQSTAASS

kinases (KINOMEscan panel) (Homo sapiens, UniProt Q9H4B4), sequence (Q9H4B4 whole entry): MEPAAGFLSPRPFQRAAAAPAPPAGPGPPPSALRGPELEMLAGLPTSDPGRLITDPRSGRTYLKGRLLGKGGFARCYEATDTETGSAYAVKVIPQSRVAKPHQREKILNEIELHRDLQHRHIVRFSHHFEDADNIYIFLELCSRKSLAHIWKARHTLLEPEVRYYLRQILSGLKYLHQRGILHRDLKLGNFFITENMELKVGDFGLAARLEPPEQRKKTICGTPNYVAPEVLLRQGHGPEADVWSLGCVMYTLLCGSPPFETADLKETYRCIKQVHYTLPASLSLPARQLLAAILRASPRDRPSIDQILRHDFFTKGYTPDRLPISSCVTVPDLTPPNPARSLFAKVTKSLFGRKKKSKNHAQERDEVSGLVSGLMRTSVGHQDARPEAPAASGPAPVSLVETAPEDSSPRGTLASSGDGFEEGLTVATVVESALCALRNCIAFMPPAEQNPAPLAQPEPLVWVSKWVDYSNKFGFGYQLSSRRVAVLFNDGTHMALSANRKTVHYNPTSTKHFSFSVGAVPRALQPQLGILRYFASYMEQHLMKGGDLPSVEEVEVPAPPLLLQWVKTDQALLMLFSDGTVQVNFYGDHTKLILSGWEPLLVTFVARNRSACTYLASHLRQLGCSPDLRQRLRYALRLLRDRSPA
kinases (KINOMEscan panel) (Homo sapiens, UniProt Q15746), sequence (Q15746 whole entry): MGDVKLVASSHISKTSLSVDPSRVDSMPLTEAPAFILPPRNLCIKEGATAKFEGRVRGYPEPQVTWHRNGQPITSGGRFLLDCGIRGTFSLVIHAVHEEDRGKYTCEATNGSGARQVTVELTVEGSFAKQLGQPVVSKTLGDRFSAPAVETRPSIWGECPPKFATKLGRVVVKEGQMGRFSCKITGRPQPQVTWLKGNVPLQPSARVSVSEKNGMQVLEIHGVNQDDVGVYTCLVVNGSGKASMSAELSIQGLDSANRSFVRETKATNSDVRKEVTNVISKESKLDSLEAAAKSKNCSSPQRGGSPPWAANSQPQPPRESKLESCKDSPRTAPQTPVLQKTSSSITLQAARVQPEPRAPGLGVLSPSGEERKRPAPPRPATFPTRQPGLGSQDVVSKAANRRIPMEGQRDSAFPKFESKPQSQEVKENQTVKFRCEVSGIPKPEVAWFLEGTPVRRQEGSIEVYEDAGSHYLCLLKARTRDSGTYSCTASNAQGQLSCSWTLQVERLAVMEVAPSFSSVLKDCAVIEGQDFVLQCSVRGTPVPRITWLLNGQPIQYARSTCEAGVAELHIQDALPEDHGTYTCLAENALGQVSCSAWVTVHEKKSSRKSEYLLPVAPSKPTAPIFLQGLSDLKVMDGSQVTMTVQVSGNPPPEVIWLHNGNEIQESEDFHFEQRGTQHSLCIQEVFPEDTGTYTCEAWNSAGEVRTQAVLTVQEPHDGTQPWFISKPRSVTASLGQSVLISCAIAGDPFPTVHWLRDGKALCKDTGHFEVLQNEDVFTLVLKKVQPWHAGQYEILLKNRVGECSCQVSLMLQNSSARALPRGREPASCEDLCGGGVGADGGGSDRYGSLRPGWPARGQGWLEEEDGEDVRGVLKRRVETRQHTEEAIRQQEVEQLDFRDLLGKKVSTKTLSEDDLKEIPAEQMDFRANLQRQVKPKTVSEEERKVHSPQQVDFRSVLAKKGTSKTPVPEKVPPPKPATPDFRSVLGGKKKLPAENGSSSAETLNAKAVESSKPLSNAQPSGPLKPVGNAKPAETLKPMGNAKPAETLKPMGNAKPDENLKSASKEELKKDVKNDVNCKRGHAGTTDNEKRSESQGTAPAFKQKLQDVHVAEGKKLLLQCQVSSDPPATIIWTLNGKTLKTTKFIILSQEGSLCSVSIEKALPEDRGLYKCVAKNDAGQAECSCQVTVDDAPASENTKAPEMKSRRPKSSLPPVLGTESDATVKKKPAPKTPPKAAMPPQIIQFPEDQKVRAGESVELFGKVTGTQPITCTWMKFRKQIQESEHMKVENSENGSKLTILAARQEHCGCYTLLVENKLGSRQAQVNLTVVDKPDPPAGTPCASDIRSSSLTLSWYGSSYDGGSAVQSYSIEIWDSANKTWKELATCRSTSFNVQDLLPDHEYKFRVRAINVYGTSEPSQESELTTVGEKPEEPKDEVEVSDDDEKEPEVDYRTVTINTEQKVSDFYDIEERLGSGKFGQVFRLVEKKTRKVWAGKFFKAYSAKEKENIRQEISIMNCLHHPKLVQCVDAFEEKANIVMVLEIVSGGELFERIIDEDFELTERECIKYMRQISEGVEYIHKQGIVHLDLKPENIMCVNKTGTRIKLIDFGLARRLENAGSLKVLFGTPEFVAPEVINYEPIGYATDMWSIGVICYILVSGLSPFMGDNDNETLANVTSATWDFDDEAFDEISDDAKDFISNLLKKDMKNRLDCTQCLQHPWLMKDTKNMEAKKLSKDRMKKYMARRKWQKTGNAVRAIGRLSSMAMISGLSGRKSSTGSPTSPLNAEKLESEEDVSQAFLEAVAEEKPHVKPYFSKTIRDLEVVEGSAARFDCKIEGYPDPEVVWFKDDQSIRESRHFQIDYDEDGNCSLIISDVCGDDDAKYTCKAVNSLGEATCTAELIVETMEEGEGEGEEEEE
kinases (KINOMEscan panel) (Homo sapiens, UniProt Q96J92), sequence (Q96J92 whole entry): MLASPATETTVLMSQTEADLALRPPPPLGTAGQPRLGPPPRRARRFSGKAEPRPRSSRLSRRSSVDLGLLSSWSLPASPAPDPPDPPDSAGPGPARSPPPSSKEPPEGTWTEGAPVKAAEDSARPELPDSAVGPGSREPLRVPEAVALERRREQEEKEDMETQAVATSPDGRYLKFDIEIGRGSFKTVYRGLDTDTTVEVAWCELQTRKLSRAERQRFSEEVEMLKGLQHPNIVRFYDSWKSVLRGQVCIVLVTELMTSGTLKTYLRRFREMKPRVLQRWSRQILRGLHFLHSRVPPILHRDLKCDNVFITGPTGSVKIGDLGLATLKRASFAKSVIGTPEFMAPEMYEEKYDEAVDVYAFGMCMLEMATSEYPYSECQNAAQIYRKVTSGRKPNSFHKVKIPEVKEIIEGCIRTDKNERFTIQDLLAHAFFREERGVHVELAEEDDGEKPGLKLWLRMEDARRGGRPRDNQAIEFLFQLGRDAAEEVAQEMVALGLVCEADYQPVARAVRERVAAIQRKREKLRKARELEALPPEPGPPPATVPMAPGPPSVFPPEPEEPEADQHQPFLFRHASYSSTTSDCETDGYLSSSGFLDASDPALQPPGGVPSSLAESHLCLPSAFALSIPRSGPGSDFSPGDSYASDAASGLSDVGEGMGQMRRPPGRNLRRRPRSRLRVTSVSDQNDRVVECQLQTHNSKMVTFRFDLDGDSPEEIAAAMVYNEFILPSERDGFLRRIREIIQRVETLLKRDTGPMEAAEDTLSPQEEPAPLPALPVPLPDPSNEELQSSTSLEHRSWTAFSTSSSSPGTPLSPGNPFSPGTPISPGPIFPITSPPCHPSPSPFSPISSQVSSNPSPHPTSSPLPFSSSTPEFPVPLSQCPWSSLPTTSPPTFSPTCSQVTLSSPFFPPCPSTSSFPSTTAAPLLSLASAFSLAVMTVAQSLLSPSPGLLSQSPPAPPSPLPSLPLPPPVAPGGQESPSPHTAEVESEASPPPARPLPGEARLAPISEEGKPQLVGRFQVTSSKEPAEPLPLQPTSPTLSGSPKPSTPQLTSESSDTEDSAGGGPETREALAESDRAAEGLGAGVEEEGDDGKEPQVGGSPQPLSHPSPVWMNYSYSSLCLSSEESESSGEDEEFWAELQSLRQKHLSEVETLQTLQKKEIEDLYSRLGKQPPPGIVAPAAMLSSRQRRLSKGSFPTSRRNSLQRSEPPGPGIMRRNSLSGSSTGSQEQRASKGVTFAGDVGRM

Cc1cccc(-c2nc(Nc3ccncc3)c3ccccc3n2)n1 [NK215]
KINOMEscan MAPKAPK5 [1]: 0 | KINOMEscan MAP4K3 [2]: 0 | KINOMEscan PKMYT1 [3]: 0 | KINOMEscan WNK4 [4]: 0 | KINOMEscan PLK3 [5]: 0 | KINOMEscan MYLK [6]: 12 | KINOMEscan DYRK1B [7]: 27
